Data on 2 molecules can be found in patent publication US20060094775A1, “Remedy for corneal ulcer” (priority 2003, published 2006).

“Also recorded” adds a separate entry of the source.

For assay [1], the system named is rabbit corneal stromal cells. The assay is described as follows: Measurement of collagen degradation activity after three-dimensional collagen gel culture (hydroxyproline per well). The assay is classed as cell-based. The settings on record: IL-1β 0.1 ng/ml, 48 hr three-dimensional culture, various concentrations. The procedure:
(§1) Rabbit corneal stromal cells were prepared and cultured according to the description of Mishima et al., Invest. Ophthalmol. Vis. Sci. 28, 1521-6 (1987). The rabbits were sacrificed by overdose of sodium pentobarbital. Eyeballs were enucleated, sclera was incised to remove cornea. Stroma was separated from epithelium and endothelium. Corneal stromal cells were detached from stroma by digesting with collagenase (Collagenase from Clostridium histolyticum, Sigma (U.S.A.) #C-0130) (2 mg/ml) at 37° C. for 3-4 hr. The cells were cultured in MEM supplemented with 10% fetal bovine serum (FBS), grown in an incubator (37° C. humidity 100%) in 5% CO2 and then passaged in MEM containing 10% FBS.
Collagen gel was prepared according to the manual of Nitta gelatin. To be specific, the obtained rabbit corneal stromal cells were washed with PBS(−), 0.05% Trypsin (1 ml) was added thereto, and the mixture was left in a CO2 incubator for several min to detach the cells. […] The number of the cells was counted with Burker-Turk hemocytometer (Kayagaki Irika Kogyo). […]
After three-dimensional culture, the medium was collected and non-degraded collagen fibril having a molecular weight exceeding 100 kDa was removed by ultrafiltration. […] The amount of the hydroxyproline in the hydrolysate was measured using an Ehrlich's reagent and a spectrophotometer (Bergman et al., Anal. Chem., 35, 1961-5 (1963)). […]

Assay [2] concerns proMMP-9, MMP-9, proMMP-2 and MMP-2 in rabbit corneal stromal cells. Kind of assay: Gelatin zymography of culture medium for MMP-2 and MMP-9 forms after three-dimensional culture. It is filed as cell-based. The settings on record: for effect on expression of MMPs and proMMPs (gelatin zymography): plasminogen addition, IL-1β 0.1 ng/ml (Example 2, FIG. 9). The procedure:
as §1
Collagen gel was prepared according to the manual of Nitta gelatin. To be specific, the obtained rabbit corneal stromal cells were washed with PBS(−), 0.05% Trypsin (1 ml) was added thereto, and the mixture was left in a CO2 incubator for several min to detach the cells. MEM (5 ml) containing 10% FBS was added to quench the trypsin reaction. The cell suspension was transferred to a 15 ml centrifuge tube, and centrifuged at 1500 rpm for 5 min. The supernatant was removed and the cells were suspended in a constant amount of serum free MEM. The number of the cells was counted with Burker-Turk hemocytometer (Kayagaki Irika Kogyo). The supernatant was removed by centrifugation at 1500 rpm for 5 min. Serum free MEM was added to give a cell suspension (2200000 cells/ml). A. acid-solubilized Type I collagen (3 mg/ml), B. 5-fold concentration of DMEM, C. reconstruction buffer (0.05N NaOH, 0.26 M NaHCO3, 0.2 M HEPES, pH 7.3) and D. a cell suspension (2.2×10^6 cells/ml) were mixed at a ratio of A:B:C:D=7:2:1:1 while cooling on ice. The collagen solution was placed in a 24 well culture plate at 0.5 ml/well, and stood in an incubator at 37° C. 5% CO2 for 0.5-5 hr. Then, 0.5 ml of serum free MEM containing IL-1β (0.1 ng/mL) and various concentrations of triptolide or dexamethasone was overlaid and cultured for 48 hr. […]

The subject of assay [3] is proMMPs 1 and 3 in human synovial fluid fibroblast. The settings on record: cited from earlier work.
In assay [4] the test system is TIMP-1 production (mRNA) in rabbit corneal stromal cells. The assay is described as follows: RT-PCR of TIMP-1 mRNA after three-dimensional culture. The assay is classed as cell-based. The settings on record: IL-1β 0.1 ng/ml; dexamethasone 1 nM, triptolide 3 μM. As to the method:
as §1
Collagen gel was prepared according to the manual of Nitta gelatin. […] The number of the cells was counted with Burker-Turk hemocytometer (Kayagaki Irika Kogyo). […]
After three-dimensional culture, collagenase was added to dissolve the collagen gel, and the cells were collected. […] This cDNA, QuantiTect SYBR Green PCR Master Mix solution (QuantiTect-SYBR Green PCR kit, manufactured by Qiagen, Germany), nuclease free water and rabbit TIMP-1 primer (synthesis at Nippon Gene Institute, Han et al., Nagoya J. Med. Sci. 62, 115-126 (1999)) were mixed, and the expression amount of TIMP-1 mRNA was examined using LightCycler (manufactured by Roche Molecular Biochemicals, Germany).

Assay [5] concerns glycosylated proMMP-1, proMMP-1, MMP-1, proMMP-3 and MMP-3 in rabbit corneal stromal cells. Kind of assay: Western blot of culture medium for MMP-1 and MMP-3 forms after three-dimensional culture. It is filed as cell-based. The settings on record: IL-1β addition. As to the method:
as §1
Collagen gel was prepared according to the manual of Nitta gelatin. To be specific, the obtained rabbit corneal stromal cells were washed with PBS(−), 0.05% Trypsin (1 ml) was added thereto, and the mixture was left in a CO2 incubator for several min to detach the cells. MEM (5 ml) containing 10% FBS was added to quench the trypsin reaction. The cell suspension was transferred to a 15 ml centrifuge tube, and centrifuged at 1500 rpm for 5 min. The supernatant was removed and the cells were suspended in a constant amount of serum free MEM. The number of the cells was counted with Burker-Turk hemocytometer (Kayagaki Irika Kogyo). The supernatant was removed by centrifugation at 1500 rpm for 5 min. […]
Background: In western blotting, separated proteins are transferred to a membrane and probed.

With `CC(C)[C@]12O[C@H]1[C@@H]1O[C@@]13[C@@]1(C)CCC4=C(COC4=O)[C@@H]1C[C@@H]1O[C@@]13C2OC(=O)CCC(=O)[O-].[Na+]` (stereo partly drawn) [triptolide succinate sodium salt], in assay [1], the “effect on IL-1β induced collagen degradation (amount of degraded collagen as hydroxyproline per well)” value is listed as “suppress IL-1β induced collagen degradation in a concentration dependent manner”. The “effect on expression of MMPs and proMMPs (gelatin zymography)” value in assay [2] is “suppresses increase of MMP-2 and activation of MMP-9”.
In the case of `CC(C)[C@]12O[C@H]1[C@@H]1O[C@]13[C@]1(O[C@H]1C[C@H]1C4=C(CC[C@@]13C)C(=O)OC4)[C@@H]2O` [triptolide], in assay [3], the “effect on production of proMMPs 1 and 3” value is “suppresses production of proMMPs 1 and 3”. In addition, the “effect on TIMP-1 production (relative copy number of mRNA)” value in assay [4] is recorded as “does not”. For the same molecule, the “effect on IL-1β induced collagen degradation (amount of degraded collagen as hydroxyproline per well)” value in assay [1] is “suppress IL-1β induced collagen degradation in a concentration dependent manner; also recorded: suppresses IL-1β induced collagen degradation in a concentration dependent manner”. Moreover, the “effect on expression and activation of proMMPs (Western blot)” value in assay [5] (60 mg/ml plasminogen addition) is “suppresses increase and activation of glycosylated proMMP-1, proMMP-1 and proMMP-3”. Besides, in assay [5] (plasminogen non-addition), the “effect on expression of proMMPs (Western blot)” value is “suppresses increase of glycosylated proMMP-1, proMMP-1 and proMMP-3 induced by IL-1β”. For the same molecule, the “effect on expression and activation of proMMPs (gelatin zymography)” value in assay [2] (60 mg/ml plasminogen addition, IL-1β addition (Example 1)) was “activation of proMMP-9”. Also, the “effect on expression of MMPs and proMMPs (gelatin zymography)” value in assay [2] is “suppresses increase of proMMP-2 and MMP-2, as well as activation of proMMP-9”.
